In PMC10518257 (Nature Cancer, 2023):
“And” between values parts separate entries of the source, which are not always exact repeats. Equal values may be shown once.

Test system: NIH-3T3-CCDC6::RET xenografts
Experiment: Subcutaneous xenograft efficacy study

How did the “Area Under Curve of tumor growth, Mean” value (25 mg/kg BID) turn out when `COCc1ccc(NC(=O)c2c(C#CCN3CCOCC3)n(C3(C)CC3)c3ncnc(N)c23)cc1` [Vepafestinib, 4-amino-N-[4-(methoxymethyl)phenyl]-7-(1-methylcyclopropyl)-6-[3-(morpholin-4-yl)prop-1-yn-1-yl]-7H-pyrrolo[2,3-d]pyrimidine-5-carboxamide] was run?
The value was 1601.

And the “Tumor volume” value (25 mg/kg BID, day 0, individual animals)?
The value was 93.59 mm3 (2×) and 90.28 mm3 (3×).

And the “Tumor volume” value (25 mg/kg BID, day 2, individual animals)?
Its value is 193.69 mm3 and 110.58 mm3 and 112.28 mm3 and 116.25 mm3 (2×).

What about the “Tumor volume” value (25 mg/kg BID, day 5, individual animals) of the same compound?
Its value is 537.65 mm3 and 353.84 mm3 and 294.89 mm3 and 435.05 mm3 and 334.49 mm3.

What about the “Tumor volume” value (25 mg/kg BID, day 8, individual animals) of the same compound?
The value was 612.84 mm3 and 590.68 mm3 and 301.59 mm3 and 585.96 mm3 and 389.56 mm3.

What about the “Tumor volume” value (25 mg/kg QD, day 0, individual animals) of the same compound?
The value was 85.5 mm3 (2×) and 93.59 mm3 and 90.28 mm3 (2×).

And the “Tumor volume” value (25 mg/kg QD, day 5, individual animals)?
The value was 285.69 mm3 and 281.26 mm3 and 438.74 mm3 and 367.92 mm3 and 382.08 mm3.

What about the “Tumor volume” value (25 mg/kg QD, day 8, individual animals) of the same compound?
The value was 705.04 mm3 and 750.45 mm3 and 1169.92 mm3 and 945.8 mm3 and 1108.35 mm3.

And the “Area Under Curve of tumor growth, Mean” value (50 mg/kg BID)?
The value was 678.7.

What about the “Tumor volume” value (50 mg/kg BID, day 0, individual animals) of the same compound?
Its value is 90.28 mm3.

What about the “Tumor volume” value (50 mg/kg BID, day 5, individual animals) of the same compound?
The value was 225.29 mm3 and 277.15 mm3 and 217.15 mm3 and 205.88 mm3 and 223.64 mm3.

And the “Tumor volume” value (50 mg/kg BID, day 8, individual animals)?
Its value is 231.59 mm3 and 332.9 mm3 and 291.54 mm3 and 235.62 mm3 (2×).

What about the “Tumor volume” value (50 mg/kg QD, day 0, individual animals) of the same compound?
Its value is 93.59 mm3 and 83.97 mm3 (2×) and 85.5 mm3 and 90.28 mm3.

And the “Tumor volume” value (50 mg/kg QD, day 5, individual animals)?
The value was 270.08 mm3 and 180.15 mm3 and 189.86 mm3 and 245.54 mm3 and 226.78 mm3.

And the “Tumor volume” value (50 mg/kg QD, day 8, individual animals)?
Its value is 466.45 mm3 and 389.65 mm3 and 491.45 mm3 and 378.3 mm3 and 446.6 mm3.

What about the “Area Under Curve of tumor growth, Mean” value (100 mg/kg QD) of the same compound?
The value was 371.

What about the “Tumor volume” value (100 mg/kg QD, day 0, individual animals) of the same compound?
Its value is 83.97 mm3 (4×) and 85.5 mm3.

And the “Tumor volume” value (100 mg/kg QD, day 5, individual animals)?
The value was 153.78 mm3 and 149.63 mm3 and 176.28 mm3 and 145.47 mm3 and 154.42 mm3.

And the “Tumor volume” value (100 mg/kg QD, day 8, individual animals)?
The value was 153.78 mm3 and 197.55 mm3 and 200.12 mm3 (2×) and 192.42 mm3.
